In US7071227B2, “Antiviral compositions and methods of use” (The Johns Hopkins University, priority 2000, dated 2006):
Values after ≈ are worked out from the molar mass of the structure shown. Values joined by “and” are separate entries in the source; they are usually repeats but may differ in a detail not shown here. Identical values can stand only once. Like-named read-outs stand apart in the source and are kept apart here.

Experiments:
HIV-1 integrase = HIV-1 integrase (Human immunodeficiency virus type 1 group M subtype B, UniProt P12497); experiment: HIV-1 integrase 3'-end processing assay; assay type: biochemical
Experimental: The HIV-1 integrase assay utilized in testing described below used a DNA substrate consisting of a DNA sequence derived from the U5 end of HIV-1 LTR. It was prepared by annealing oligonucleotide U5V1 (5′-[…]) with its complementary strand U5V2 (3′-[…]). The U5V1 strand was labeled at the 5′-end with [γ-^32P] ATP using T4 polynucleotide kinase as described previously (Kamata et al., 1994). The standard reaction mixture included reaction buffer (40 mM HEPES, pH 7.5, 20 mM MnCL2, 60 mM NaCl, 20 mM DTT and 0.1% Nonidet-P40) and HIV-1 integrase (NIH AIDS Research and Reference Reagent Program). To assay for 3′-end processing, the labeled substrate was incubated with the reaction mixture for 60 minutes at 37° C. An equal volume of stop solution (95% formamide, 30 mM EDTA, 0.1% xylene cyanol, 0.1% bromophenol blue) was added to each reaction and the samples were heated to 95°′ C. for 5 minutes to denature the DNA. The samples were then fractionated by electrophorsis on a 15% denaturing polyacrylamide gel. The 3′-end processing activity was monitored by the appearance of a radioactive oligonucleotides product (33 nt), shortened by two nucleotides from the original substrate (35 nt). The products were visualized by autoradiography and quantitation was carried out by phosphorimaging.

[1] = system: HIV-1IIIBA17 and HIV-1L10R/M461/L63P/V82T/184V; experiment: HIV replication in infected H9 cells, HIV/p24 monoclonal antibody assay; assay type: cell-based; conditions: Human immunodeficiency virus 1, H9, read-out: IC50 against HIV replication
Experimental: The following cells and virus strains were obtained from the AIDS Research and Reference Regent Program, Division of AIDS, National Institute of Allergy and Infectious Diseases: H9 cells, virus strains of HIV-1IIIBA17, a variant resistant to RT nonnucleotide inhibitors and HIV-1L10R/M461/L63P/V82T/184V, a protease inhibitor resistant virus, as well as viral strains HTLV-IIImn, HIV-1RTMF and HTLV-IIIB. Virus-infected H9 cells were cultured in the presence of different concentrations of M522 and M532 and viral replication was assayed using the HIV/p24 monoclonal antibody assay.
The inhibitory effect of M522 and M532 against HIV replication was further examined using HIV-1IIIBA17, a variant resistant to RT nonnucleotide inhibitors and HIV-1L10R/M461/L63P/V82T/184V, a protease inhibitor resistant virus, as testing viruses in the presence of a variety of drug concentrations in infected H9 cells.
FIG. 7A graphically illustrates the effect of M522 and M532 on HIV-1 replication. FIG. 7A illustrates the dose-dependent inhibition of HIV-1 replication in H9 cells infected with HIV-1IIIBA17 and HIV-1L10R/M461/L63P/V82T/184V viruses in the presence of different drug concentrations of M522 and M532.

H9 cells = experiment: MTT cytotoxicity assay; assay type: cell-based, human; conditions: 4 days
Experimental: The cytotoxicity of M522 and M532 drugs against H9 cells was analyzed using MTT [3-(4,5-dimethylthiazol-2-yl)-2,5-diphenyltetrazolium bromide] assay (Sigma Chemical Co.) (Uckun et al., 1998). Briefly, exponentially growing H9 cells were seeded onto 96-well plates at a density of 3×10^4 cells/well and incubated for 24 h at 37° C. prior to drug exposure. On the day of treatment, a series Of M522 and M532 concentrations (1.25, 2.5, 5, 10, 20, 40, 80, and 160 μg/ ml) were used to test their cytotoxicity in H9 cells. Quadruplicate wells were used for each treatment. The cells were incubated with M522 and M532 for 4 days at 37° C. in a humidified 5% CO2 atmosphere. To each well, 50 μl of MTT (1 mg/ml final concentration) was added and the plates were incubated at 37° C. for 4 h to allow MTT to form formazan crystals by reacting with metabolically active cells. The formazan crystals were solubilized with DMSO. The absorbance of each well was measured in a microtiter reader at optical density 540 nm. The reaction is specific, no significant amounts of formazan can be detected with dead cells.

HIV-1IIIBA17 variant = experiment: HIV-1 replication in H9 cells, p24 antigen assay; assay type: cell-based; conditions: for inhibition at 1.25 µg/mL / inhibition at 2.5 µg/mL / inhibition at 5 µg/mL / inhibition at 10 µg/mL / inhibition at 20 µg/mL / inhibition at 40 µg/mL / inhibition at 80 µg/mL: Human immunodeficiency virus 1, H9; for IC50: Human immunodeficiency virus 1, H9, 192 h, read-out: IC50, HIV-1 replication
Experimental: (§1) Inhibitory activity of M522 and M532 against the replication of four different HIV-1 strains was tested in this example. Two of the strains were drug-resistant virus isolates (HIV-1RTMF resistant against AZT and HIV-1IIIBA17 variant resistant against inhibition by RT nonnucleotide inhibitors) and the other two were primary isolates (HTLV-IIIMN and HTLV-IIIB).
(§2) On the day before infection, H9 cells were subcultured at 1–2×10^5 cells/ml and on the day of the infection, cells were pelleted by centrifugation at room temperature for 10 minutes. The pellet was then resuspended with 1 ml of each strain according to the virus titer. The mixtures were incubated at 37 ° C. in CO2 incubator for 2 hours. The cells were then washed two times with PBS and then two times with the culture medium (RPMI 1640). The cells were resuspended with fresh medium and plated in 96 well plates. Every 3–4 days after infection, cells were sub-cultured and supernatant was saved to assay for virus production.
(§3) The activity of M522 against the four strains were tested at various drug concentrations of 80, 40, 20, 10, 5, 2.5, 1.25, and 0 μg/ml. After 8 days, the infection of the cells was detected by using HIV-1 p24 antigen assay, which is an enzyme immunoassay (EIA, or enzyme-linked immunosorbent assay) developed for detection and quantitation of the HIV-1 p24 core protein.

HIV-1RTMF = experiment: HIV-1 replication in H9 cells, p24 antigen assay; assay type: cell-based; conditions: for inhibition at 1.25 µg/mL / inhibition at 2.5 µg/mL / inhibition at 5 µg/mL / inhibition at 10 µg/mL / inhibition at 20 µg/mL / inhibition at 40 µg/mL / inhibition at 80 µg/mL: Human immunodeficiency virus 1, H9; for IC50: Human immunodeficiency virus 1, H9, 192 h, read-out: IC50, HIV-1 replication
Experimental: as §1, §2, §3

HTLV-IIIB = experiment: HIV-1 replication in H9 cells, p24 antigen assay; assay type: cell-based; conditions: for IC50: Human immunodeficiency virus 1, 192 h, H9 cells, 8 days; for inhibition at 1.25 µg/mL: Human immunodeficiency virus 1, H9, 1.25 μg/ml; for inhibition at 2.5 µg/mL: Human immunodeficiency virus 1, H9, 2.5 μg/ml; for inhibition at 5 µg/mL: Human immunodeficiency virus 1, H9, 5.0 μg/ml; for inhibition at 10 µg/mL: Human immunodeficiency virus 1, H9, 10.0 μg/ml; for inhibition at 20 µg/mL: Human immunodeficiency virus 1, H9, 20.0 μg/ml; for inhibition at 40 µg/mL: Human immunodeficiency virus 1, H9, 40.0 μg/ml; for inhibition at 80 µg/mL: Human immunodeficiency virus 1, H9, 80.0 μg/ml
Experimental: as §1, §2, §3

HTLV-IIIMN = experiment: HIV-1 replication in H9 cells, p24 antigen assay; assay type: cell-based; conditions: for IC50: Human immunodeficiency virus 1, 192 h, H9 cells, 8 days; for inhibition at 1.25 µg/mL: Human immunodeficiency virus 1, H9, 1.25 μg/ml; for inhibition at 2.5 µg/mL: Human immunodeficiency virus 1, H9, 2.5 μg/ml; for inhibition at 5 µg/mL: Human immunodeficiency virus 1, H9, 5.0 μg/ml; for inhibition at 10 µg/mL: Human immunodeficiency virus 1, H9, 10.0 μg/ml; for inhibition at 20 µg/mL: Human immunodeficiency virus 1, H9, 20.0 μg/ml; for inhibition at 40 µg/mL: Human immunodeficiency virus 1, H9, 40.0 μg/ml; for inhibition at 80 µg/mL: Human immunodeficiency virus 1, H9, 80.0 μg/ml
Experimental: as §1, §2, §3

Row | SMILES | IC50 [1] | CC100; cells remained viable at highest concentration tested (H9 cells) [µM] | inhibition at 1.25 µg/mL (HIV-1IIIBA17 variant) [%] | inhibition at 2.5 µg/mL (HIV-1IIIBA17 variant) [%] | inhibition at 5 µg/mL (HIV-1IIIBA17 variant) [%] | inhibition at 10 µg/mL (HIV-1IIIBA17 variant) [%] | inhibition at 20 µg/mL (HIV-1IIIBA17 variant) [%] | inhibition at 40 µg/mL (HIV-1IIIBA17 variant) [%] | inhibition at 80 µg/mL (HIV-1IIIBA17 variant) [%] | IC50 (HIV-1IIIBA17 variant) [µg/mL] | inhibition at 1.25 µg/mL (HIV-1RTMF) [%] | inhibition at 2.5 µg/mL (HIV-1RTMF) [%] | inhibition at 5 µg/mL (HIV-1RTMF) [%] | inhibition at 10 µg/mL (HIV-1RTMF) [%] | inhibition at 20 µg/mL (HIV-1RTMF) [%] | inhibition at 40 µg/mL (HIV-1RTMF) [%] | inhibition at 80 µg/mL (HIV-1RTMF) [%] | IC50 (HIV-1RTMF) [µg/mL] | IC50 (HTLV-IIIB) [µg/mL] | inhibition at 1.25 µg/mL (HTLV-IIIB) [%] | further results
1 | O=C(/C=C/c1ccc(O)c2c1[C@H](C(=O)O)[C@@H](c1ccc(O)c(O)c1)O2)O[C@H](Cc1ccc(O)c(O)c1)C(=O)O [M522, 4-{2-[1-carboxy-2-(3,4-dihydroxy-phenyl)-ethoxycarbonyl]-vinyl}-2-(3,4-dihydroxy-phenyl)-7-hydroxy-2,3-dihydro-benzofuran-3-carboxylic acid] | 1.5 µg/mL and 2.7 µM | > 297 | 51.2 | 53.6 | 76.8 | 85 | 90.2 | 100 | 100 | 1.5 (≈ 2.79 µM) | 26.2 | 47.7 | 78.6 | 83.4 | 95.5 | 98.2 | 100 | 2.7 (≈ 5.01 µM) | 11 (≈ 20.4 µM) | 31.4 | IC50 (HIV-1 integrase; read-out: IC50, inhibition of HIV-1 integrase 3' processing activity (converted)): 836 nM and 830 nM; inhibition at 2.5 µg/mL (HTLV-IIIB): 42.1%; inhibition at 5 µg/mL (HTLV-IIIB): 45.9%; inhibition at 10 µg/mL (HTLV-IIIB): 47.3%; inhibition at 20 µg/mL (HTLV-IIIB): 62%; inhibition at 40 µg/mL (HTLV-IIIB): 82.4%; inhibition at 80 µg/mL (HTLV-IIIB): 94.5%; IC50 (HTLV-IIIMN): 9 µg/mL (≈ 16.7 µM); inhibition at 1.25 µg/mL (HTLV-IIIMN): 7.7%; inhibition at 2.5 µg/mL (HTLV-IIIMN): 21.8%; inhibition at 5 µg/mL (HTLV-IIIMN): 30%; inhibition at 10 µg/mL (HTLV-IIIMN): 51.9%; inhibition at 20 µg/mL (HTLV-IIIMN): 72.1%; inhibition at 40 µg/mL (HTLV-IIIMN): 77.3%; inhibition at 80 µg/mL (HTLV-IIIMN): 88.4%
2 | O=C(/C=C/c1ccc(O)c2c1[C@H](C(=O)O[C@H](Cc1ccc(O)c(O)c1)C(=O)O)[C@@H](c1ccc(O)c(O)c1)O2)O[C@H](Cc1ccc(O)c(O)c1)C(=O)O [M532, 4-{2-[1-carboxy-2-(3,4-dihydroxy-phenyl)-ethoxycarbonyl]-vinyl}-2-(3,4-dihydroxy-phenyl)-7-hydroxy-2,3-dihydro-benzofuran-3-carboxylic acid 1-carboxy-2-(3,4-dihydroxy-phenyl)-ethyl ester] | 1 µg/mL and 1.39 µM | > 223 | 2 | 21.8 | 50 | 53.6 | 97.5 | 97.7 | 98.4 | 5 (≈ 6.96 µM) | 20.8 | 38.7 | 44.2 | 73.6 | 90.4 | 95 | 98.3 | 5.6 (≈ 7.79 µM) | 11 (≈ 15.3 µM) | 4.7 | IC50 (HIV-1 integrase; IC50, inhibition of HIV-1 integrase 3' processing activity): 487 nM and 450 nM; inhibition at 2.5 µg/mL (HTLV-IIIB): 16.1%; inhibition at 5 µg/mL (HTLV-IIIB): 20.1%; inhibition at 10 µg/mL (HTLV-IIIB): 34.5%; inhibition at 20 µg/mL (HTLV-IIIB): 90.8%; inhibition at 40 µg/mL (HTLV-IIIB): 96.2%; inhibition at 80 µg/mL (HTLV-IIIB): 96.8%; IC50 (HTLV-IIIMN): 5.5 µg/mL (≈ 7.65 µM); inhibition at 1.25 µg/mL (HTLV-IIIMN): 8.3%; inhibition at 2.5 µg/mL (HTLV-IIIMN): 45.7%; inhibition at 5 µg/mL (HTLV-IIIMN): 47%; inhibition at 10 µg/mL (HTLV-IIIMN): 57.2%; inhibition at 20 µg/mL (HTLV-IIIMN): 87%; inhibition at 40 µg/mL (HTLV-IIIMN): 90%; inhibition at 80 µg/mL (HTLV-IIIMN): 94.1%
